# In patent US20220370416A1, “COMPOUNDS AND METHODS FOR TARGETED DEGRADATION OF KRAS” (Arvinas Operations, Inc., priority 2020, published 2022):
# How the values were obtained:
# KRAS^G12C [1] = molecular target: T1, KRAS^G12C (Homo sapiens, UniProt P01116, G12C); assay: KRAS^G12C degradation by immunoblot in MIA PaCa-2 cells; format: cell-based; parameters: MRTX849-VHL bifunctional compounds engage and degrade endogenous KRAS^G12C in NCI-H2030 cells; endogenous in cells; host or cells: NCI-H2030, NCI-H358, MIA PaCa-2, SW1573, NCI-H23; conditions: for KRAS, two-way ANOVA significance vs DMSO: FIG. 10A
# Method: NCI-H2030 (CRL-5914), MIA PaCa-2 (CRL-1420), NCI-H23 (CRL-5800), NCI-H358 (CRL-5807), and HCT-116 (CCL-247) cells were obtained from ATCC, expanded immediately, and frozen down. Vials were thawed and used within 20 passages. SW1573 cells were a gift from Arvinas and were handled in the same manner. NCI-H2030, NCI-H23, and NCI-H358 were cultured in RPMI (ATCC30-2001) supplemented with 10% FBS (Biological Industries; cat. no. S1480) and 1% Penicillin-Streptomycin (ThermoFisher; cat. no. 15140122). HCT-116 cells were maintained in high glucose DMEM (ThermoFisher; cat. no. 11965084) supplemented as above. MIA PaCa-2 cells were cultured in high glucose DMEM supplemented with 10% FBS, 2.5% horse serum (ThermoFisher; cat. no. 26050-088; lot 2109875), and 1% Penicillin-Streptomycin. SW1573 cells were maintained in DMEM/F12 Nutrient Mix with GlutaMAX supplement (ThermoFisher; cat. no. 10565018) with 10% FBS and 1% Penicillin-Streptomycin added. DPBS (ThermoFisher; cat. no. 14190250) was used to wash cells and 0.25% Trypsin-EDTA (ThermoFisher; cat. no. […]) was used to detach cells for passaging. […] The VHL ligand was generously provided by Arvinas.
# Between 2.5×10^5 and 6.0×10^5 cells were seeded into 6-well plates (Corning; cat. no. 353046). The next day, media was removed and cells were treated with 2.5 μM LC-2 for 1, 2, 4, 8, 12, or 24 hours. […] For 24-hour time course experiments, cells were treated at the indicated times and concurrently lysed in RIPA buffer supplemented as described previously. For longer time course experiments and time courses in which cells were treated with LC-2 or LC-2 Epimer, cells were concurrently treated with either compound, then lysed by scraping in RIPA buffer at the indicated time points.
# Cell lysates were clarified at 21000×g for 15 mins at 4° C. Protein levels were quantified using a 50:1 mixture of bicinchoninic acid solution (Millipore Sigma; cat. no. B9643) and 4% (w/v) copper(II) sulfate solution (Millipore Sigma; cat. no. C2284) incubated at 37° C. for 30 mins. Absorbance values at 560 nm were read on an EnVision 2101 Multilabel Reader (PerkinElmer). Proteins were separated using 26 well Criterion TGX precast 4-15% (cat. no. 5671085) or 8-16% (cat. no. 5671105) gradient midi gels. After separation, proteins were transferred to nitrocellulose or PVDF membranes at 76 V for 2 hours at 4° C. Blots were then blocked in 5% milk in tris-buffered saline with Tween-20 (TBST; 20 mM Tris, 150 mM NaCl, 0.02% Tween-20). After blocking, blots were incubated in primary antibody overnight (12-18 hours) at 4° C. or for 2 hours at room temperature with mild agitation at the manufacturer's indicated dilution in either 5% milk or 5% BSA in TBST. Blots were then washed thrice with TBST for 5 mins at room temperature. After washing, blots were incubated with 1:5,000-1:10,000 of donkey anti-rabbit (GE Life Sciences; NA934) or sheep anti-mouse (GE Life Sciences; NA931) secondary antibody diluted in 5% milk for 1 hour at room temperature with mild agitation. Blots were again washed thrice with TBST for 5 mins. Chemiluminescent signal was generated using Amersham ECL Prime Western Blotting Detection Reagant (GE Life Sciences; cat. no. RPN2232) or SuperSignal West Femto Maximum Sensitivity Substrate (ThermoFisher; cat. no. 34095). Images were obtained using a Bio-Rad ChemiDoc Imager. Fluorescent α-tubulin images were collected with the Bio-Rad ChemiDoc Imager using an Alexa488 filter. The primary antibodies used in this work include: KRAS (LSBio; clone 2C1; cat. no. LS-C175665), p-p42/44 MAPK (phospho T202/Y204) (pErk; Cell Signaling Technologies (CST); cat. no. 4370S or 9106S), p42/44 MAPK (Erk1/2; CST; cat. no. 4695S), alpha-tubulin (CST; 2144S), and alpha-tubulin w/AlexaFluor488 (Millipore; cat. no. 16-232).
# Band intensities were quantified using BioRad's Image Lab Software.
# KRAS^G12C [2] = molecular target: T1, KRAS^G12C; assay: KRAS^G12C degradation in homozygous MIA PaCa-2 cells; format: cell-based; parameters: endogenous in cells; host or cells: MIA PaCa-2; conditions: homozygous MIA PaCa-2 cells (FIG. 4B)
smiles,measurement,setting,value
"C=C(F)C(=O)N1CCN(c2nc(OC[C@@H]3CCCN3CCCOCCC(=O)N[C@H](C(=O)N3C[C@H](O)C[C@H]3C(=O)NCc3ccc(-c4scnc4C)cc3)C(C)(C)C)nc3c2CCN(c2cccc4cccc(Cl)c24)C3)C[C@@H]1CC#N [LC-2, (2S,4R)-1-((S)-2-(3-(3-((S)-2-(((7-(8-chloronaphthalen-1-yl)-4-((S)-3-(cyanomethyl)-4-(2-fluoroacryloyl)piperazin-1-yl)-5,6,7,8-tetrahydropyrido[3,4-d]pyrimidin-2-yl)oxy)methyl)pyrrolidin-1-yl)propoxy)propanamido)-3,3-dimethylbutanoyl)-4-hydroxy-N-(4-(4-methylthiazol-5-yl)benzyl)pyrrolidine-2-carboxamide]",DC50,"KRAS^G12C [1]; MIA PaCa2, homozygous KRAS^G12C",320 ± 80 nM
same,Dmax,KRAS^G12C [1]; MIA PaCa-2,> 75%
same,duration of KRAS degradation,"KRAS^G12C [1]; MIA PaCa-2, 2.5 μM",sustained up to 72 hours
same,time to maximal KRAS degradation,"KRAS^G12C [1]; MIA PaCa-2, 2.5 μM, 6, 24, 48, 72 hours",≤ 24 h
same,"KRAS, two-way ANOVA significance vs DMSO","KRAS^G12C [1]; MIA PaCa-2, 2.5 μM, 6 hours",** (** p < 0.01)
same,"KRAS, two-way ANOVA significance vs DMSO","KRAS^G12C [1]; MIA PaCa-2, 2.5 μM, 24 hours",** (** p < 0.01)
same,induction of KRAS^G12C degradation,KRAS^G12C [2],induces KRAS^G12C
